Laboratory results reported in ChEMBL document CHEMBL1201862, “PubChem BioAssay data set” (2004).
Active and inactive are the calls of the source.

Legend:
[1] = target: T1, Beta Lactamase (Pseudomonas aeruginosa, UniProt Q932Y6); assay: VIM-2 CCF2 hydrolysis inhibition, assay artifact filter – biochemical, FRET readout, CCF2 substrate, artefact control for selective VIM-2 inhibitor project, dose response (AID 1926)
[2] = target: Beta-lactamase (Salmonella choleraesuis (strain SC-B67), UniProt Q5J463); assay: Epi-absorbance-based counterscreen for selective VIM-2 inhibitors: dose response biochemical high throughput screening assay to identify inhibitors of TEM-1 serine-beta-lactamase.
Chain of Beta-lactamase (Salmonella choleraesuis (strain SC-B67), UniProt Q5J463) (Q5J463 whole entry): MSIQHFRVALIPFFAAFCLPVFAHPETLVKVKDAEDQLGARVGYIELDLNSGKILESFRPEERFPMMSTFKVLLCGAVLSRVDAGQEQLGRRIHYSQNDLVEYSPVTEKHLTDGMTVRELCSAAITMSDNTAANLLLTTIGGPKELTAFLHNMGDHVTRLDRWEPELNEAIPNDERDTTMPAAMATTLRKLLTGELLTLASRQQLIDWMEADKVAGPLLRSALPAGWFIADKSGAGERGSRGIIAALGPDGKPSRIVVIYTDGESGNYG

[3] = target: T1, Beta Lactamase; assay: concentration-dependent VIM-2 enzyme inhibition – biochemical, epi-absorbance readout, selective inhibitors, dose response (AID 1919)
[4] = target: T2, Beta-lactamase (Pseudomonas aeruginosa, UniProt Q79MP6); assay: […] counterscreen for selective VIM-2 inhibitors: dose response biochemical high throughput screening assay to identify inhibitors of IMP-1 metallo-beta-lactamase.
T2 sequence (Q79MP6 whole entry): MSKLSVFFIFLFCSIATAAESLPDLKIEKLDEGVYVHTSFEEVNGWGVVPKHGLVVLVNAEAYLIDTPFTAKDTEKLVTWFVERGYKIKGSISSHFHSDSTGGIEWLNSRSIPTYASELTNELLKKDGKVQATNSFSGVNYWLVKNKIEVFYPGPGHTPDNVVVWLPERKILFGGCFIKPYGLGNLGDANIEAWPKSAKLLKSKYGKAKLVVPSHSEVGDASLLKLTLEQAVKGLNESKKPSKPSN

[5] = target: T2, Beta-lactamase; assay: inhibition of IMP-1 beta-lactamase activity – biochemical, epi-absorbance, selectivity assay for VIM-2 inhibitor project, dose response (AID 1920)
[6] = target: T3, Small ubiquitin-related modifier 1 (Homo sapiens, UniProt P63165); assay: SUMO1 protein interaction blockers, potency – biochemical, fluorescence polarization, uHTS hits, dose response (AID 624382); type: functional; conditions: read-out: IC50_Mean
T3 sequence (P63165 whole entry): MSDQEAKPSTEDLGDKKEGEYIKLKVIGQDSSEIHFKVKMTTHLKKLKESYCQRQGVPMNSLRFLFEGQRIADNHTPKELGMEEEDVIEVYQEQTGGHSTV

[7] = target: Dual specificity protein phosphatase 3 (Homo sapiens, UniProt P51452); assay: VHR phosphatase inhibition, dose response, selectivity assay for STEP inhibitor project, biochemical (AID 602374); type: functional; conditions: read-out: IC50_Mean
Chain of Dual specificity protein phosphatase 3 (P51452 whole entry): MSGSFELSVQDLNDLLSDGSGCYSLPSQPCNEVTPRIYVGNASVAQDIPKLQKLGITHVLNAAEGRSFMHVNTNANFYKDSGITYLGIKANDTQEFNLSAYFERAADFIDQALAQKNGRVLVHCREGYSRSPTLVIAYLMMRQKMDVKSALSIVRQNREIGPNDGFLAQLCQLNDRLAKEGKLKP

[8] = target: Tyrosine-protein phosphatase non-receptor type 5 (Homo sapiens, UniProt P54829); assay: PTPN5 enzyme inhibition – biochemical, fluorescence intensity, uHTS hits, confirmation (AID 602372); type: functional; conditions: read-out: IC50_Mean
Chain of Tyrosine-protein phosphatase non-receptor type 5 (P54829 whole entry): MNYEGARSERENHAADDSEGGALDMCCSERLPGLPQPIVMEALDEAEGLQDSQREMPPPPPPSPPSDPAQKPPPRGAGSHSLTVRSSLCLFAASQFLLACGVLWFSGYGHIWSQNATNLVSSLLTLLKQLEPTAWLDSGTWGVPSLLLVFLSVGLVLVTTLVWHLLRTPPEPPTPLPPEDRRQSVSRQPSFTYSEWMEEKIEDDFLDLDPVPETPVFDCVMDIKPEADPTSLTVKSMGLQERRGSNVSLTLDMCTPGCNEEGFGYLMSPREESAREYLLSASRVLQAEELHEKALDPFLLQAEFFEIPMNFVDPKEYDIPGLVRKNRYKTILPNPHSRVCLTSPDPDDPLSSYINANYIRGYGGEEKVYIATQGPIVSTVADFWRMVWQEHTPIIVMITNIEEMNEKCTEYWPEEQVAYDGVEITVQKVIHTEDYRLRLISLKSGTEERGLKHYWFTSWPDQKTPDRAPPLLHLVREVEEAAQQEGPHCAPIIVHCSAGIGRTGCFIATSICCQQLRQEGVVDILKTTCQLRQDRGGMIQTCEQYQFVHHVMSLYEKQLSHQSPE

[9] = viability of uninfected HEp-2 cells – cell-based, HTS, cytotoxicity control for RSV inhibitor project, dose response (AID 2410); type: functional; conditions: human respiratory syncytial virus
[10] = target: Tyrosine-protein phosphatase non-receptor type 11 (Homo sapiens, UniProt Q06124); assay: PTPN11 enzyme inhibitors – biochemical, selectivity assay for STEP inhibitor project, dose response (AID 602367); type: functional; conditions: read-out: IC50_Mean
Chain of Tyrosine-protein phosphatase non-receptor type 11 (Q06124 whole entry, the tested form may be a part): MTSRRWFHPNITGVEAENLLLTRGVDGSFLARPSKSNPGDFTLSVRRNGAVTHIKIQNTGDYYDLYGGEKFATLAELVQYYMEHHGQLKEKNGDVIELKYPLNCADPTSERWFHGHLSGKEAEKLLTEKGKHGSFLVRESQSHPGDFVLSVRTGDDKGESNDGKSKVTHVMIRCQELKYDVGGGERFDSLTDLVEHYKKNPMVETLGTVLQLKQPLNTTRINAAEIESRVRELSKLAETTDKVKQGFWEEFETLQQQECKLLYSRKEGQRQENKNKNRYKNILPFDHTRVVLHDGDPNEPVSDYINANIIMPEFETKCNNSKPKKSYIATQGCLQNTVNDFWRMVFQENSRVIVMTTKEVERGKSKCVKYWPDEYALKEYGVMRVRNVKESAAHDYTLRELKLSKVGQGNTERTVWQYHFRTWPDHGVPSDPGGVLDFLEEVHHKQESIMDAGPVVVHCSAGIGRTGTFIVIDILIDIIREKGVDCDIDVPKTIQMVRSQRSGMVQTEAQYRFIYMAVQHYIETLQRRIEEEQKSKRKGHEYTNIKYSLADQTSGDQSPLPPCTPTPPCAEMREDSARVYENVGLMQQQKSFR

[11] = target: T4, Carboxy-terminal domain RNA polymerase II polypeptide A small phosphatase 1 (Homo sapiens, UniProt Q9GZU7); assay: CTDSP1 inhibitors, concentration-response, biochemical, absorbance readout, ultra-high-throughput screen actives (AID 540297); type: functional
T4 sequence (Q9GZU7 whole entry): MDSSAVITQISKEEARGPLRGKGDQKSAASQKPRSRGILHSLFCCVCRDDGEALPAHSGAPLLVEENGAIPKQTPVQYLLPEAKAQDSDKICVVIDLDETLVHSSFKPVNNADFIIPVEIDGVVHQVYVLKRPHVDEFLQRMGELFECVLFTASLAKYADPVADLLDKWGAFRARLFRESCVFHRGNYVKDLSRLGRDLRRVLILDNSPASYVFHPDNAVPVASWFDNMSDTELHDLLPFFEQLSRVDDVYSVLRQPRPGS

[12] = target: T3, Small ubiquitin-related modifier 1; assay: SUMO1 protein-protein binding blockers, potency – biochemical, FRET, dose response (AID 624383); type: functional; conditions: read-out: IC50_Mean
[13] = target: T5, Interleukin-8 (Homo sapiens, UniProt P10145); assay: Dose Response confirmation of uHTS small molecule hits for cystic fibrosis induced NFkb Inhibitors in a TNFa-induced IL8 counterscreen.; type: functional; conditions: read-out: IC50_Mean
T5 sequence (P10145 whole entry): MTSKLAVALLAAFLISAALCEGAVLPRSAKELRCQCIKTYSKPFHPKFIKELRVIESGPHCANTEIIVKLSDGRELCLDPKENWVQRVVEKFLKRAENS

[14] = target: Paired box protein Pax-8 (Homo sapiens, UniProt Q06710); assay: PAX8 transcriptional activity inhibition in RMG-I – RMG-I cells, luciferase, cherry-pick, dose response (AID 687027); type: functional, cell-based;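 also: luciferase reporter driven by Pax8 target thyroperoxidase promoter measured by SteadyGlo luminescence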
Chain of Paired box protein Pax-8 (Q06710 whole entry): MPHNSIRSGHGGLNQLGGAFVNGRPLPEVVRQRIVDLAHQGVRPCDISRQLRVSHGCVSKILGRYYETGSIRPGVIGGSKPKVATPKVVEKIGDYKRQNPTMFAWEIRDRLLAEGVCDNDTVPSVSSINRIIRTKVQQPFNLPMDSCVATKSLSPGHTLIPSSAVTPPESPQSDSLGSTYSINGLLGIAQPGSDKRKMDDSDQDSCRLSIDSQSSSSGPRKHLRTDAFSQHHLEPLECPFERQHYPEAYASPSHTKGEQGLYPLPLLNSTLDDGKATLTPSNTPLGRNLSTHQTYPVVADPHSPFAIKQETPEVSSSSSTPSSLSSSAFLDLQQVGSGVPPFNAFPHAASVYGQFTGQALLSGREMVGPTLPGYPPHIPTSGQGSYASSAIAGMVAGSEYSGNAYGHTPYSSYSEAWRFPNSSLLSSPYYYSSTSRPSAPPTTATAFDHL

[15] = target: T5, Interleukin-8; assay: Dose Response confirmation of uHTS small molecule hits for cystic fibrosis induced NFkb Inhibitors in a PAF-induced IL8 counterscreen.; type: functional; conditions: read-out: IC50_Mean
[16] = target: Melanocortin receptor 4 (Homo sapiens, UniProt P32245); type: functional, cell-based;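 also: Cell-based assay with luminescence read-out, confirmatory dose-response testing for agonist activity of biased ligands at MC4R; human U2OS cells with tagged receptor and beta-arrestin; potency of agonists that increase receptor coupling to beta-arrestin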
Chain of Melanocortin receptor 4 (P32245 whole entry): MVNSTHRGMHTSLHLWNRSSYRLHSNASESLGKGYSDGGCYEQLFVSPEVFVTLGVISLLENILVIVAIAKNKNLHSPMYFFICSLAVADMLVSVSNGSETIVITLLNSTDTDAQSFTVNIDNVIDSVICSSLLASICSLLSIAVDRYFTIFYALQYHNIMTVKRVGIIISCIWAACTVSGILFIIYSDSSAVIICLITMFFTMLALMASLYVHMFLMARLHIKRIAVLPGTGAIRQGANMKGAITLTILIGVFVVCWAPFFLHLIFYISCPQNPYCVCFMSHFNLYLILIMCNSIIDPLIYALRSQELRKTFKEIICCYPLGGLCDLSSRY

[17] = target: T6, Streptokinase A (Streptococcus pyogenes serotype M1, UniProt P10520); assay: viability-normalized secreted streptokinase activity reduction – plasminogen activation absorbance, OD405, dose response (AID 1914); type: functional, Streptococcus pyogenes M1 GAS;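 also: secreted streptokinase activity via plasminogen activation per viability signal from cell pellet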
T6 sequence (P10520 whole entry): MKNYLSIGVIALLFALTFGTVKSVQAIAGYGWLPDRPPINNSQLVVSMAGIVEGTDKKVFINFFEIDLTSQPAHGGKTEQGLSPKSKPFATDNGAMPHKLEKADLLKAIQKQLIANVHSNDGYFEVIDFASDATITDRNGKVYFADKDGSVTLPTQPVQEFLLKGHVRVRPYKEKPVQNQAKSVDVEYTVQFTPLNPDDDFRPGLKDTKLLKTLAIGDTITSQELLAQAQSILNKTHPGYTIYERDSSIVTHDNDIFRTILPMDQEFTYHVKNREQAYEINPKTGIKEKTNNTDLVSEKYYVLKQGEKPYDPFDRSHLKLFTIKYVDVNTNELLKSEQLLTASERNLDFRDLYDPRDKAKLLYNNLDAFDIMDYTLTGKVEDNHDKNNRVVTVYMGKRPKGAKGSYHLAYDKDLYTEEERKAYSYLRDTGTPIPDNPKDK

[18] = fluconazole-exposed Candida albicans growth modulators – fluorescence, retest, confirmation (AID 2467); type: functional, cell-based
[19] = target: T7, High affinity choline transporter 1 (Homo sapiens, UniProt Q9GZV3); assay: human choline transporter blockers, potency – cell-based, 5-point CRC, membrane potential dye, dose response (AID 504840); type: functional
T7 sequence (Q9GZV3 whole entry): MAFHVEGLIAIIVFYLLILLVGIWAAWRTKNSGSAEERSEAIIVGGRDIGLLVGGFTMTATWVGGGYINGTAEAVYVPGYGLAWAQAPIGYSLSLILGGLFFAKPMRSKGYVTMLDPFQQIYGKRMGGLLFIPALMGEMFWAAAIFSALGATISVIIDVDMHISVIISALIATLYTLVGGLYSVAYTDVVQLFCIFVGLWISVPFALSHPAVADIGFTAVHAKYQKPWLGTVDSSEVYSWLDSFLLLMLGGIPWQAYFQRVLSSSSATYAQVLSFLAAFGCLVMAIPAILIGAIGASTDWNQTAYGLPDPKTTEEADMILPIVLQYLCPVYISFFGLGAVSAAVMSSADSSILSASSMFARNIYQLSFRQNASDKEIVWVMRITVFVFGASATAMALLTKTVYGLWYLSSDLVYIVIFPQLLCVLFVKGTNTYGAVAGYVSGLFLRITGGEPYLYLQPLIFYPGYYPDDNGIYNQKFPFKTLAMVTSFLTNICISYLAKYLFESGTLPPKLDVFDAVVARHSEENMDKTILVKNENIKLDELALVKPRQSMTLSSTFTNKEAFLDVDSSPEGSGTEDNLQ

[20] = microbe, parasite or virus in culture; type: functional; conditions: Mycobacterium tuberculosis
[21] = target: T8, Neuropeptide Y receptor type 2 (Homo sapiens, UniProt P49146); assay: Fluorescence-based cell-based high-throughput dose response assay for agonists of NPY-Y2. [Related pubchem assays: 1703 (Screening assay (CNGC inhibitors).), 1359 (Screening assay (NPY-Y2 potentiators or agonists).), 1304 (Screening assay (NPY-Y1 potentiators or agonists).), 1710 (Screening assay (NPY-Y2 agonists).), 1791 (Summary AID.)]; type: functional
T8 sequence (P49146 whole entry): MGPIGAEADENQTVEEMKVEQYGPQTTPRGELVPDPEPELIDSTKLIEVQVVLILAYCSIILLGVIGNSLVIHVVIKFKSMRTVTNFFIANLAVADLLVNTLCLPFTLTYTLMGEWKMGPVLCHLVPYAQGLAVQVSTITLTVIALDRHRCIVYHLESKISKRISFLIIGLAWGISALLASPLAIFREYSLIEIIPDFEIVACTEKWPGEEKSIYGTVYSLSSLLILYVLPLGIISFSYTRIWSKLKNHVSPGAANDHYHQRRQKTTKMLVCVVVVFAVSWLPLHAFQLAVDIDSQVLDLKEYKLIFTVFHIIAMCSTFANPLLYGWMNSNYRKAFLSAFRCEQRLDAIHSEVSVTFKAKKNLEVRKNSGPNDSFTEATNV

[22] = system: HEK293; assay: Fluorescence-based counterscreen for potentiators or agonists of NPY-Y2: cell-based high-throughput dose response assay to identify inhibitors of cyclic nucleotide gated ion channel (CNGC) activity. In this assay, the parental HEK293 cell line transfected with a cyclic-nucleotide gated ion channel (CNGC)-based cAMP sensor is used to measure inhibition of isoproterenol-induced CNGC activity by test compound.; type: functional; conditions: Homo sapiens;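 also: stimulus is 1 µM isoproterenol at EC100 plus PDE inhibitor Ro 20-1724 at 25 µM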
[23] = target: T9, Polyadenylate-binding protein 1 (Homo sapiens, UniProt P11940); assay: MLLE domain peptide-binding blockers, IC50 – biochemical, fluorescence polarization, FITC-PAM2 peptide, dose response (AID 602259); type: functional; conditions: read-out: IC50_Mean
T9 sequence (P11940 whole entry, the tested form may be a part): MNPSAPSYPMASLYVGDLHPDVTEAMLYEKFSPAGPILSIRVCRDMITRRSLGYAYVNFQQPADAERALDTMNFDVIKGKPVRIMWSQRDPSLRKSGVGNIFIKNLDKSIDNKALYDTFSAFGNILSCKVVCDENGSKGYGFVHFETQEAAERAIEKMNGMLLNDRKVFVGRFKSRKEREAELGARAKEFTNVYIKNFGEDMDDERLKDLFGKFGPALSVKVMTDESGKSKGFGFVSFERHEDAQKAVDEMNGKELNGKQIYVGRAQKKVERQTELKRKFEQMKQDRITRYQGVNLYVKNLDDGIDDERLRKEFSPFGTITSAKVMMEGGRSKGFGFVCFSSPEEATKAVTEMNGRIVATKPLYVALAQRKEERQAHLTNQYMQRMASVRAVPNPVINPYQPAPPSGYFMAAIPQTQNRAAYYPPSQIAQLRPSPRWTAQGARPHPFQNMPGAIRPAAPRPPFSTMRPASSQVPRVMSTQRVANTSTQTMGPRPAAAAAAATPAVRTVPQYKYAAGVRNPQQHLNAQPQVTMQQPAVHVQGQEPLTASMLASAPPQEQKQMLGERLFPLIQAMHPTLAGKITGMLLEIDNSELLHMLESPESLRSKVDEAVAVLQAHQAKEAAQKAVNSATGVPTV

[24] = NIH-3T3 fibroblast cytotoxicity, dose response, cytotoxicity control, cell-based, fluorescence, Alamar Blue, secondary assay (AID 2327); type: functional;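 also: NIH-3T3 mouse fibroblasts cultured with fluconazole at 8 µg/mL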
[25] = target: T10, Neuropeptide Y receptor type 1 (Homo sapiens, UniProt P25929); assay: Fluorescence-based counterscreen for agonists of NPY-Y2: cell-based high-throughput dose response assay for agonists of NPY-Y1.; type: functional
T10 sequence (P25929 whole entry): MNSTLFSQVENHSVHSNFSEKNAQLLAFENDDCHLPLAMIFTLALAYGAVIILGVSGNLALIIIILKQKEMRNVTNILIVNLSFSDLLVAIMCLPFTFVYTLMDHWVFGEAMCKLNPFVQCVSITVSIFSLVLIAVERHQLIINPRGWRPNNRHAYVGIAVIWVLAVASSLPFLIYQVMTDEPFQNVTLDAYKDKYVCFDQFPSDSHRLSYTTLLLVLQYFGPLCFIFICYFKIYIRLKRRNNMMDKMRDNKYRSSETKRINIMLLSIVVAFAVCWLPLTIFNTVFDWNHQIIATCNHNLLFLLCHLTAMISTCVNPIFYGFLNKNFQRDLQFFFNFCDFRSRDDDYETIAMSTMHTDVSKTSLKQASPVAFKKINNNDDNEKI

[26] = system: Streptococcus; assay: GAS UMAA2166 growth inhibition – luminescence, BacTiterGlo, counter-screen for streptokinase expression inhibitor project, dose response (AID 1915); type: functional, organism-based;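 also: potency for reduction of bacterial viability or growth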
[27] = target: T9, Polyadenylate-binding protein 1; assay: MLLE binding blockers, Cy5 peptide tracer – biochemical, fluorescence polarization, Cy5-PAM2 peptide, secondary, miRNA deadenylation inhibitor project, dose response (AID 602260); type: functional; conditions: read-out: IC50_Mean
[28] = system: Streptococcus sp. 'group A'; assay: Streptococcus pyogenes SK(-)GAS viability under kanamycin – luminescence, BacTiterGlo, confirmation, counter-screen for streptokinase expression inhibitor project, dose response (AID 1900); type: functional, organism-based
[29] = target: T7, High affinity choline transporter 1; assay: human choline transporter blockers, potency – cell-based, 10-point CRC, membrane potential dye, dose response (AID 588401); type: functional;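 also: membrane potential dye fluorescence of choline-evoked depolarization via CHT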

T1 sequence (Q932Y6 whole entry): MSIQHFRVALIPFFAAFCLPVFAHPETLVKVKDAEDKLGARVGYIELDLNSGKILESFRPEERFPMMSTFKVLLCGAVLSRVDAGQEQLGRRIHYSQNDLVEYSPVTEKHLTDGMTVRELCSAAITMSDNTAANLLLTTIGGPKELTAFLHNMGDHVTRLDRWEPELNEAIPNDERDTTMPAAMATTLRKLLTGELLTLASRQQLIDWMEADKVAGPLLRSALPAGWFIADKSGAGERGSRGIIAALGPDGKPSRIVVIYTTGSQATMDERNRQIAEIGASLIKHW

COc1ccc(C(=O)C2=C(O)C(=O)N(Cc3ccco3)C2c2cc(OC)ccc2OC)cc1 (centres undefined)
IC50 [1]: 5.61 µM (active) | IC50 [2]: > 59.6 µM (inactive) | IC50 [3]: 12.8 µM (inactive) | IC50 [4]: > 59.6 µM (inactive) | IC50 [5]: > 59.6 µM (inactive)

O=C1Nc2ccc3sc4ccccc4c3c2C1=O
IC50 [6]: > 66.6 µM (inactive) | IC50 [7]: 2.49 µM (active) | IC50 [8]: 15.2 µM (active) | CC50 [9]: > 50 µM (active) | IC50 [10]: 3.25 µM (active) | IC50 [11]: 4.35 µM (active) | IC50 [12]: 8.19 µM (active)

CCOC(=O)Nc1ccc2c(c1)N(C(=O)CCN(CC)CC)c1ccccc1[S+]2[O-] (centres undefined)
IC50 [13]: 1.01 µM (active) | AC50 [14]: 7.06 µM (active) | IC50 [15]: 1.12 µM (active)

COc1ccc(-c2cnc3c(NC(C)=O)cc(-c4cc(F)ccc4OC)cn23)cc1OC
EC50 [16]: > 89.2 µM (inactive)

N#C/C(=N/Nc1ccc(OC(F)(F)F)cc1)C(N)=S
EC50 [17]: > 150 µM (not active) | EC50 [18]: 1.67 µM (active) | IC50 [19]: 7.16 µM (active) | CC50 [20]: 8.05 µM (active) | EC50 [21]: > 35.4 µM (not active) | EC50 [22]: > 35.4 µM (not active) | IC50 [23]: > 66 µM (inactive) | EC50 [24]: 15 µM (active) | EC50 [25]: 33.3 µM (not active) | EC50 [26]: > 150 µM (not active) | IC50 [27]: > 66 µM (inactive) | EC50 [28]: 44.9 µM (active) | IC50 [29]: 0.631 µM (active)
